Measurements published in the supplement of paper PMC10307832.

Columns and labels:
Experiment in all cases: relative viability (nuclei count vs DMSO), 5 days (fraction); higher = more cells survive
Ruboxistaurin = compound: CN(C)C[C@@H]1CCn2cc(c3ccccc32)C2=C(C(=O)NC2=O)c2cn(c3ccccc23)CCO1 [Ruboxistaurin]
In short: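 Following overnight incubation at 37 °C, lung cancer cell lines in 1536-well plates were pinned with five library-drug doses (not always all listed) in √10 steps on vehicle-anchored plates. The cells then spent 5 days without medium change before a combined fix, permeabilisation and Hoechst stain, 4× imaging and MetaXpress nuclear counts. Viability is the treated-to-vehicle ratio of nuclei, taken as the median across plates. Only plates with control CV below 25% and at least one doubling passed.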

Ruboxistaurin + Olaparib = compound: CN(C)C[C@@H]1CCn2cc(c3ccccc32)C2=C(C(=O)NC2=O)c2cn(c3ccccc23)CCO1 [Ruboxistaurin] + O=C(c1cc(Cc2n[nH]c(=O)c3ccccc23)ccc1F)N1CCN(C(=O)C2CC2)CC1 [Olaparib] (partner 8 µM)
In short: (§1)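 Relative viability is defined as nuclei in treated wells over nuclei in vehicle wells. Duplicate plates were run and medians reported. Lung cancer cell lines in 1536-well plates were dosed by pin tool one day after seeding, with one drug or with a fixed anchor-drug dose plus five library-drug doses (not always all listed) in √10 steps, and nuclei were counted after 5 days.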

[1] = compound: CN(C)C[C@@H]1CCn2cc(c3ccccc32)C2=C(C(=O)NC2=O)c2cn(c3ccccc23)CCO1 [Ruboxistaurin] + CC(=O)c1c(C)c2cnc(Nc3ccc(N4CCNCC4)cn3)nc2n(C2CCCC2)c1=O [Palbociclib] (partner 0.5 µM)
In short: as §1

[2] = compound: CN(C)C[C@@H]1CCn2cc(c3ccccc32)C2=C(C(=O)NC2=O)c2cn(c3ccccc23)CCO1 [Ruboxistaurin] + Cc1cc(Nc2cc(N3CCN(C)CC3)nc(Sc3ccc(NC(=O)C4CC4)cc3)n2)n[nH]1 [Tozasertib] (partner 0.1 µM)
In short: as §1

Ruboxistaurin + AZD7762 = compound: CN(C)C[C@@H]1CCn2cc(c3ccccc32)C2=C(C(=O)NC2=O)c2cn(c3ccccc23)CCO1 [Ruboxistaurin] + NC(=O)Nc1cc(-c2cccc(F)c2)sc1C(=O)N[C@H]1CCCNC1 [AZD7762] (partner 0.2 µM)
In short: as §1

[3] = compound: CN(C)C[C@@H]1CCn2cc(c3ccccc32)C2=C(C(=O)NC2=O)c2cn(c3ccccc23)CCO1 [Ruboxistaurin] + O=C(CCCCCCC(=O)Nc1ccccc1)NO [Vorinostat] (partner 1 µM)
In short: as §1

[4] = compound: CN(C)C[C@@H]1CCn2cc(c3ccccc32)C2=C(C(=O)NC2=O)c2cn(c3ccccc23)CCO1 [Ruboxistaurin] + CC(=O)Nc1cccc(-n2c(=O)n(C3CC3)c(=O)c3c(Nc4ccc(I)cc4F)n(C)c(=O)c(C)c32)c1 [Trametinib] (partner 0.02 µM)
In short: as §1

[5] = compound: CN(C)C[C@@H]1CCn2cc(c3ccccc32)C2=C(C(=O)NC2=O)c2cn(c3ccccc23)CCO1 [Ruboxistaurin] + Nc1ncn([C@H]2C[C@H](O)[C@@H](CO)O2)c(=O)n1 [Decitabine] (partner 2 µM)
In short: as §1

Ruboxistaurin + OSI-027 = compound: CN(C)C[C@@H]1CCn2cc(c3ccccc32)C2=C(C(=O)NC2=O)c2cn(c3ccccc23)CCO1 [Ruboxistaurin] + COc1cccc2cc(-c3nc([C@H]4CC[C@H](C(=O)O)CC4)n4ncnc(N)c34)[nH]c12 [OSI-027] (partner 0.5 µM)
In short: as §1

[6] = compound: CN(C)C[C@@H]1CCn2cc(c3ccccc32)C2=C(C(=O)NC2=O)c2cn(c3ccccc23)CCO1 [Ruboxistaurin] + Nc1nc2[nH]cc(CCc3ccc(C(=O)N[C@@H](CCC(=O)O)C(=O)O)cc3)c2c(=O)[nH]1 [Pemetrexed] (partner 0.2 µM)
In short: as §1

[7] = compound: CN(C)C[C@@H]1CCn2cc(c3ccccc32)C2=C(C(=O)NC2=O)c2cn(c3ccccc23)CCO1 [Ruboxistaurin] + Cc1nc(Nc2ncc(C(=O)Nc3c(C)cccc3Cl)s2)cc(N2CCN(CCO)CC2)n1 [Dasatinib] (partner 0.075 µM)
In short: as §1

[8] = compound: CN(C)C[C@@H]1CCn2cc(c3ccccc32)C2=C(C(=O)NC2=O)c2cn(c3ccccc23)CCO1 [Ruboxistaurin] + N=C(N)NC(=N)NCCc1ccccc1 [Phenformin] (partner 250 µM)
In short: as §1

[9] = compound: CN(C)C[C@@H]1CCn2cc(c3ccccc32)C2=C(C(=O)NC2=O)c2cn(c3ccccc23)CCO1 [Ruboxistaurin] + CCNC(=O)c1noc(-c2cc(C(C)C)c(O)cc2O)c1-c1ccc(CN2CCOCC2)cc1 [Luminespib] (partner 0.01 µM)
In short: as §1

[10] = compound: CN(C)C[C@@H]1CCn2cc(c3ccccc32)C2=C(C(=O)NC2=O)c2cn(c3ccccc23)CCO1 [Ruboxistaurin] + COc1cc2c(Oc3ccc(NC(=O)C4(C(=O)Nc5ccc(F)cc5)CC4)cc3F)ccnc2cc1OCCCN1CCOCC1 [Foretinib] (partner 0.25 µM)
In short: as §1

Cell Line: NCI-H1648
- relative viability (Ruboxistaurin; 0.08 µM): 0.894
- relative viability (Ruboxistaurin; 0.8 µM): 0.966
- relative viability (Ruboxistaurin; 2.53 µM): 1.11
- relative viability (Ruboxistaurin; 8 µM): 1.15
- relative viability (Ruboxistaurin + Olaparib; first compound 0.08 µM): 1.33
- relative viability (Ruboxistaurin + Olaparib; first compound 0.8 µM): 0.64
- relative viability (Ruboxistaurin + Olaparib; first compound 2.53 µM): 0.797
- relative viability (Ruboxistaurin + Olaparib; first compound 8 µM): 1.22
- relative viability ([1]; first compound 0.08 µM): 0.248
- relative viability ([1]; first compound 0.8 µM): 0.254
- relative viability ([1]; first compound 2.53 µM): 0.285
- relative viability ([1]; first compound 8 µM): 0.247
- relative viability ([2]; first compound 0.08 µM): 0.439
- relative viability ([2]; first compound 0.8 µM): 0.438
- relative viability ([2]; first compound 2.53 µM): 0.482
- relative viability ([2]; first compound 8 µM): 0.792
- relative viability (Ruboxistaurin + AZD7762; first compound 0.08 µM): 0.621
- relative viability (Ruboxistaurin + AZD7762; first compound 0.8 µM): 0.591
- relative viability (Ruboxistaurin + AZD7762; first compound 2.53 µM): 0.835
- relative viability (Ruboxistaurin + AZD7762; first compound 8 µM): 0.865
- relative viability ([3]; first compound 0.08 µM): 0.622
- relative viability ([3]; first compound 0.8 µM): 0.433
- relative viability ([3]; first compound 2.53 µM): 0.425
- relative viability ([3]; first compound 8 µM): 0.634
- relative viability ([4]; first compound 0.08 µM): 0.643
- relative viability ([4]; first compound 0.8 µM): 0.53
- relative viability ([4]; first compound 2.53 µM): 0.455
- relative viability ([4]; first compound 8 µM): 0.681
- relative viability ([5]; first compound 0.08 µM): 0.514
- relative viability ([5]; first compound 0.8 µM): 0.501
- relative viability ([5]; first compound 2.53 µM): 0.44
- relative viability ([5]; first compound 8 µM): 0.536
- relative viability (Ruboxistaurin + OSI-027; first compound 0.08 µM): 0.246
- relative viability (Ruboxistaurin + OSI-027; first compound 0.8 µM): 0.278
- relative viability (Ruboxistaurin + OSI-027; first compound 2.53 µM): 0.291
- relative viability (Ruboxistaurin + OSI-027; first compound 8 µM): 0.274
- relative viability ([6]; first compound 0.08 µM): 0.699
- relative viability ([6]; first compound 0.8 µM): 0.717
- relative viability ([6]; first compound 2.53 µM): 0.612
- relative viability ([6]; first compound 8 µM): 0.894

Cell Line: SW 900
- relative viability (Ruboxistaurin; 0.08 µM): 0.897
- relative viability (Ruboxistaurin; 0.8 µM): 0.897
- relative viability (Ruboxistaurin; 2.53 µM): 1.14
- relative viability (Ruboxistaurin; 8 µM): 0.958
- relative viability (Ruboxistaurin + Olaparib; first compound 0.08 µM): 0.891
- relative viability (Ruboxistaurin + Olaparib; first compound 0.8 µM): 0.829
- relative viability (Ruboxistaurin + Olaparib; first compound 2.53 µM): 1.03
- relative viability (Ruboxistaurin + Olaparib; first compound 8 µM): 0.964
- relative viability ([1]; first compound 0.08 µM): 0.598
- relative viability ([1]; first compound 0.8 µM): 0.499
- relative viability ([1]; first compound 2.53 µM): 0.681
- relative viability ([1]; first compound 8 µM): 0.553
- relative viability ([2]; first compound 0.08 µM): 0.647
- relative viability ([2]; first compound 0.8 µM): 0.499
- relative viability ([2]; first compound 2.53 µM): 0.656
- relative viability ([2]; first compound 8 µM): 0.452
- relative viability ([7]; first compound 0.08 µM): 0.838
- relative viability ([7]; first compound 0.8 µM): 0.436
- relative viability ([7]; first compound 2.53 µM): 0.64
- relative viability ([7]; first compound 8 µM): 0.383
- relative viability ([8]; first compound 0.08 µM): 0.71
- relative viability ([8]; first compound 0.8 µM): 0.597
- relative viability ([8]; first compound 2.53 µM): 0.564
- relative viability ([8]; first compound 8 µM): 0.55
- relative viability (Ruboxistaurin + AZD7762; first compound 0.08 µM): 0.625
- relative viability (Ruboxistaurin + AZD7762; first compound 0.8 µM): 0.501
- relative viability (Ruboxistaurin + AZD7762; first compound 2.53 µM): 1.09
- relative viability (Ruboxistaurin + AZD7762; first compound 8 µM): 0.568
- relative viability ([3]; first compound 0.08 µM): 0.738
- relative viability ([3]; first compound 0.8 µM): 0.47
- relative viability ([3]; first compound 2.53 µM): 0.603
- relative viability ([3]; first compound 8 µM): 0.496
- relative viability ([4]; first compound 0.08 µM): 0.785
- relative viability ([4]; first compound 0.8 µM): 0.972
- relative viability ([4]; first compound 2.53 µM): 0.912
- relative viability ([4]; first compound 8 µM): 0.693
- relative viability ([5]; first compound 0.08 µM): 0.4
- relative viability ([5]; first compound 0.8 µM): 0.395
- relative viability ([5]; first compound 2.53 µM): 0.5
- relative viability ([5]; first compound 8 µM): 0.566
- relative viability (Ruboxistaurin + OSI-027; first compound 0.08 µM): 0.555
- relative viability (Ruboxistaurin + OSI-027; first compound 0.8 µM): 0.5
- relative viability (Ruboxistaurin + OSI-027; first compound 2.53 µM): 0.593
- relative viability (Ruboxistaurin + OSI-027; first compound 8 µM): 0.422
- relative viability ([9]; first compound 0.08 µM): 0.216
- relative viability ([9]; first compound 0.8 µM): 0.194
- relative viability ([9]; first compound 2.53 µM): 0.177
- relative viability ([9]; first compound 8 µM): 0.177
- relative viability ([6]; first compound 0.08 µM): 0.479
- relative viability ([6]; first compound 0.8 µM): 0.421
- relative viability ([6]; first compound 2.53 µM): 0.489
- relative viability ([6]; first compound 8 µM): 0.491
- relative viability ([10]; first compound 0.08 µM): 0.918
- relative viability ([10]; first compound 0.8 µM): 0.872
- relative viability ([10]; first compound 2.53 µM): 0.833
- relative viability ([10]; first compound 8 µM): 0.955
